For 21 compounds, T/C results are on record in PubChem BioAssay AID330 (DTP/NCI, 2004).

The test system of this experiment is P388 leukemia ip, CD2F1 mice, survival T/C. Put plainly: NCI In Vivo Anticancer Drug Screen. Data for tumor model P388 Leukemia (intraperitoneal) in CD2F1 (CDF1) mice. Conditions: endpoint: median survival time, higher = longer survival. Put shortly:
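Mice carrying the transplanted tumor received test compound or vehicle. Survival was recorded in each group, and the value is the treated-group measurement divided by that of the vehicle-treated control group.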

Setting [1] is: dose: 25.0 mg/kg/injection, schedule: Q04DX003 (ip), vehicle: saline.
Where [2] appears, read: dose: 50.0 mg/kg/injection, schedule: Q04DX003 (ip), vehicle: saline.
[3] abbreviates: dose: 50.0 mg/kg/injection, schedule: Q01DX005 (ip), vehicle: Klucel (hydroxypropylcellulose) (HPC).
Where [4] appears, read: dose: 100.0 mg/kg/injection, schedule: Q01DX005 (ip), vehicle: Klucel (hydroxypropylcellulose) (HPC).
The mark [5] stands for this setting: dose: 200.0 mg/kg/injection, schedule: Q01DX005 (ip), vehicle: Klucel (hydroxypropylcellulose) (HPC).
Setting [6] is: dose: 60.0 mg/kg/injection, schedule: Q01DX005 (ip), vehicle: saline with Tween-80.
Where [7] appears, read: dose: 120.0 mg/kg/injection, schedule: Q01DX005 (ip), vehicle: saline with Tween-80.
The mark [8] stands for this setting: dose: 240.0 mg/kg/injection, schedule: Q01DX005 (ip), vehicle: saline with Tween-80.
[9] abbreviates: dose: 100.0 mg/kg/injection, schedule: Q04DX002 (ip), vehicle: saline.
The mark [10] stands for this setting: dose: 200.0 mg/kg/injection, schedule: Q04DX002 (ip), vehicle: saline.
Where [11] appears, read: dose: 400.0 mg/kg/injection, schedule: Q04DX002 (ip), vehicle: saline.
The mark [12] stands for this setting: dose: 100.0 mg/kg/injection, schedule: Q01DX009 (ip), vehicle: saline with Tween-80.
Setting [13] is: dose: 200.0 mg/kg/injection, schedule: Q01DX009 (ip), vehicle: saline with Tween-80.

Several values for one entry are separate records, joined by “and”; a condition that tells them apart may be missing. Equal entries are not always repeated. Toxic doses and inconclusive results are not listed.

In the case of `COc1ccc(-c2cc3cc(OC)c(OC)cc3c[n+]2C)cc1OC`, the T/C runs as follows: under setting [1], 96 % of control; under setting [2], 94 % of control; (dose: 100.0 mg/kg/injection, schedule: Q04DX003 (ip), vehicle: saline) 104 % of control.

With `Clc1ccc(C2Oc3ccccc3-c3nc4ncccc4cc32)cc1` (stereo not drawn), the T/C was 86 % of control (dose: 25.0 mg/kg/injection, schedule: Q01DX005 (ip), vehicle: Klucel (hydroxypropylcellulose) (HPC)); 86 % of control under setting [3]; 88 % of control under setting [4]; 91 % of control under setting [5].

In the case of `O=C([O-])C(=O)[N-]CCC[N-]C(=O)C(=O)[N-]CCC[N-]C(=O)C(=O)[O-].[Cu+2].[Cu+2].[Na+]`, the T/C is, setting by setting: (dose: 3.75 mg/kg/injection, schedule: Q01DX005 (ip), vehicle: saline with Tween-80) 103 % of control; (dose: 7.5 mg/kg/injection, schedule: Q01DX005 (ip), vehicle: saline with Tween-80) 104 % of control; (dose: 15.0 mg/kg/injection, schedule: Q01DX005 (ip), vehicle: saline with Tween-80) 101 % of control.

Regarding `COc1ccc(C(=O)Cc2nc3nnc(N)n3nc2CC(=O)c2ccc(OC)cc2)cc1`, the T/C is 96 % of control (dose: 60.0 mg/kg/injection, schedule: Q01DX005 (ip), vehicle: saline); 100 % of control (dose: 120.0 mg/kg/injection, schedule: Q01DX005 (ip), vehicle: saline); 100 % of control (dose: 240.0 mg/kg/injection, schedule: Q01DX005 (ip), vehicle: saline).

Turning to `C[N+]1=C(c2ccc[nH]2)CC(C(=O)[O-])CC1` (stereo not drawn), the T/C runs as follows: under setting [6], 100 % of control; under setting [7], 106 % of control; under setting [8], 102 % of control.

Regarding `[N-]=[N+]=Nc1nnc(-c2ccccc2)c(=O)[nH]1`, the T/C by setting is: under setting [9], 101 % of control; under setting [10], 101 % of control; under setting [11], 96 % of control.

As for `CN(C(=S)Nc1ccccc1)c1nnn(C)n1`, the T/C runs as follows: (dose: 50.0 mg/kg/injection, schedule: Q01DX009 (ip), vehicle: saline with Tween-80) 98 % of control; under setting [12], 100 % of control; under setting [13], 107 % of control.

`c1cnc(NC(Nc2ncccn2)C2CCCCC2)nc1`: the T/C reads like this: (dose: 60.0 mg/kg/injection, schedule: Q01DX005 (ip), vehicle: Klucel (hydroxypropylcellulose) (HPC)) 100 % of control; (dose: 120.0 mg/kg/injection, schedule: Q01DX005 (ip), vehicle: Klucel (hydroxypropylcellulose) (HPC)) 100 % of control; (dose: 240.0 mg/kg/injection, schedule: Q01DX005 (ip), vehicle: Klucel (hydroxypropylcellulose) (HPC)) 94 % of control.

As for `NC(=S)c1cccc(/C=N/O)n1`, the T/C is 104 % of control (dose: 50.0 mg/kg/injection, schedule: Q04DX003 (ip), vehicle: Klucel (hydroxypropylcellulose) (HPC)); 99 % of control (dose: 100.0 mg/kg/injection, schedule: Q04DX003 (ip), vehicle: Klucel (hydroxypropylcellulose) (HPC)); 95 % of control (dose: 200.0 mg/kg/injection, schedule: Q04DX003 (ip), vehicle: Klucel (hydroxypropylcellulose) (HPC)).

Turning to `CCOC(=O)[C]1([Bi]([CH3])[CH3])N=NC(C(=O)OC)=C1C(=O)OC` (stereo not drawn), the T/C was 93 % of control under setting [1]; 97 % of control under setting [2]; 99 % of control (dose: 100.0 mg/kg/injection, schedule: Q04DX003 (ip), vehicle: saline with Tween-80).

With `C1CCCNCCNCCNCC1`, the T/C was 98 % of control under setting [6], 100 % of control under setting [7] and 92 % of control under setting [8].

Take `[Cl][Pt+2][Cl].[NH-]CCC[NH-]`: the T/C reads like this: (dose: 6.25 mg/kg/injection, schedule: Q04DX002 (ip), vehicle: saline) 178 % of control; (dose: 12.5 mg/kg/injection, schedule: Q04DX002 (ip), vehicle: saline) 183 % of control.

On to `C[Si](C)(C)N1[Si](C)(C)N[Si](C)(C)N([Si](C)(C)F)[Si]1(C)C`, for which the T/C under setting [3] is 113 % of control, the T/C under setting [4] was 105 % of control and the T/C under setting [5] was 104 % of control.

For `c1ccc(Cc2nnc3n2CCC(c2ccccc2)S3)cc1` (stereo not drawn), the T/C was 102 % of control under setting [6], 99 % of control under setting [7] and 95 % of control under setting [8].

Turning to `C[N+]1(CSc2ccccc2)CCCCC1`, the T/C by setting is: (dose: 12.5 mg/kg/injection, schedule: Q01DX009 (ip), vehicle: saline with Tween-80) 100 % of control; (dose: 25.0 mg/kg/injection, schedule: Q01DX009 (ip), vehicle: saline with Tween-80) 98 % of control.

In the case of `O=C(O)C1C2C(=O)N(CO)C(=O)C2C(C(=O)O)C2C3C(=O)N(CO)C(=O)C3C12` (stereo not drawn), the T/C is 108 % of control (dose: 12.5 mg/kg/injection, schedule: Q01DX009 (ip), vehicle: water); 99 % of control (dose: 25.0 mg/kg/injection, schedule: Q01DX009 (ip), vehicle: water); 102 % of control and 105 % of control and 92 % of control (dose: 50.0 mg/kg/injection, schedule: Q01DX009 (ip), vehicle: water); 107 % of control and 117 % of control and 120 % of control (dose: 100.0 mg/kg/injection, schedule: Q01DX009 (ip), vehicle: water); 114 % of control and 120 % of control (dose: 200.0 mg/kg/injection, schedule: Q01DX009 (ip), vehicle: water).

Regarding `COc1cccc2c1C(=O)c1c(O)c3c(c(O)c1C2=O)CC(O)(C(C)=O)CC3OC1CC(NC(=O)C(F)(F)F)C(OC(=O)c2ccc([N+](=O)[O-])cc2)C(CNC(=O)C(F)(F)F)O1` (stereo not drawn), the T/C (dose: 3.13 mg/kg/injection, schedule: Q04DX003 (ip), vehicle: distilled water + Tween-80) is 92 % of control; the T/C (dose: 6.25 mg/kg/injection, schedule: Q04DX003 (ip), vehicle: distilled water + Tween-80) was 100 % of control; the T/C (dose: 12.5 mg/kg/injection, schedule: Q04DX003 (ip), vehicle: distilled water + Tween-80) was 96 % of control; the T/C (dose: 25.0 mg/kg/injection, schedule: Q04DX003 (ip), vehicle: distilled water + Tween-80) was 96 % of control; the T/C (dose: 50.0 mg/kg/injection, schedule: Q04DX003 (ip), vehicle: distilled water + Tween-80) is 100 % of control.

Regarding `Cc1nc(NN)nc(N)c1S(=O)(=O)Cc1ccc(Cl)cc1`, the T/C under setting [9] is 94 % of control, the T/C under setting [10] is 90 % of control and the T/C under setting [11] was 90 % of control.

For the compound `O=C(O)/C=N/NS(=O)(=O)Cc1ccccc1`, the T/C reads like this: (dose: 100.0 mg/kg/injection, schedule: Q01DX009 (ip), vehicle: other) 185 % of control; (dose: 200.0 mg/kg/injection, schedule: Q01DX009 (ip), vehicle: other) 154 % of control and 166 % of control.

In the case of `CCN(CC)CCO[C@H]1CC[C@@]2(C)C(=CC[C@@H]3[C@@H]2CC[C@]2(C)C(=O)CC[C@@H]32)C1`, the T/C runs as follows: (dose: 5.0 mg/kg/injection, schedule: Q01DX009 (ip), vehicle: saline with Tween-80) 104 % of control; (dose: 5.0 mg/kg/injection, schedule: Q04DX003 (ip), vehicle: saline with Tween-80) 91 % of control; (dose: 10.0 mg/kg/injection, schedule: Q01DX009 (ip), vehicle: saline with Tween-80) 91 % of control; (dose: 10.0 mg/kg/injection, schedule: Q04DX003 (ip), vehicle: saline with Tween-80) 91 % of control; (dose: 20.0 mg/kg/injection, schedule: Q01DX009 (ip), vehicle: saline with Tween-80) 95 % of control; (dose: 20.0 mg/kg/injection, schedule: Q04DX003 (ip), vehicle: saline with Tween-80) 100 % of control.

In the case of `C/C(=C1/c2ccccc2-c2n[nH]c(C)c21)S(=O)(=O)O`, the T/C is 109 % of control under setting [12]; 109 % of control under setting [13]; 100 % of control (dose: 400.0 mg/kg/injection, schedule: Q01DX009 (ip), vehicle: saline with Tween-80).
